Assay results as given in patent publication US8193189B2, “Quinoxaline derivatives as tyrosine kinase activity inhibitors” (Novartis AG, priority 2007, dated 2012).

Legend:
[1] = test system: JAK/STAT pathway (JAK1/JAK2-dependent nuclear translocation of STAT1-GFP); assay: Inhibition of the JAK/STAT pathway: IFN-γ stimulated nuclear translocation of STAT1-GFP in HT1080 fibrosarcoma cells; format: cell-based; conditions: Homo sapiens, HT-1080; HT1080 STAT1-GFP cells, 100 ng/ml IFN-γ 2 hours, compound added 30 min before; read-out: STAT1translo IC50
Summary of the method: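 Readout is the nuclear-minus-cytoplasmic GFP-STAT1 intensity, imaged at 10× using Hoechst-defined nuclear masks over at least 1000 cells/well. Stably transfected HT1080 fibrosarcoma cells were pretreated 30 min with compound (final 0.003–10 μM, 0.1% DMSO) before IFN-γ challenge.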

[2] = molecular target: T1, GST-JAK1(866-1154) (Homo sapiens, UniProt P23458); assay: EPK JAK-family kinases profiling assay (Caliper mobility shift), JAK1; format: biochemical; conditions: ATP 40 μM, 50 nM kinase
T1 construct: GST-JAK1(866-1154); made in house
T1 sequence (P23458 866-1154): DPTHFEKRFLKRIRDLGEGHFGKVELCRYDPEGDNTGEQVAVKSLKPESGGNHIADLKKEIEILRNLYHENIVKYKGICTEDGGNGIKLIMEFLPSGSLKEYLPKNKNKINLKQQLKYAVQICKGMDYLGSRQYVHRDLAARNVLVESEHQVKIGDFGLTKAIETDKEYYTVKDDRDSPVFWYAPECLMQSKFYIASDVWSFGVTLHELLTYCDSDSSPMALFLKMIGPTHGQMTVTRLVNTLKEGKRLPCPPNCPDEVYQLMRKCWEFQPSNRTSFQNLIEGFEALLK
Summary of the method: (§1)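 Turnover was read as substrate/product ratio after mobility-shift capillary-like separation of each reaction, run for 60 min at 30 °C with GST-tagged kinase domain, labelled peptide and ATP, and terminated with EDTA stop buffer.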

[3] = molecular target: T2, GST-TYK2(888-1187) (Homo sapiens, UniProt P29597); assay: EPK JAK-family kinases profiling assay (Caliper mobility shift), TYK2; format: biochemical; conditions: ATP 30 μM, 40 nM kinase
T2 construct: GST-TYK2(888-1187); made in house
T2 sequence (P29597 888-1187): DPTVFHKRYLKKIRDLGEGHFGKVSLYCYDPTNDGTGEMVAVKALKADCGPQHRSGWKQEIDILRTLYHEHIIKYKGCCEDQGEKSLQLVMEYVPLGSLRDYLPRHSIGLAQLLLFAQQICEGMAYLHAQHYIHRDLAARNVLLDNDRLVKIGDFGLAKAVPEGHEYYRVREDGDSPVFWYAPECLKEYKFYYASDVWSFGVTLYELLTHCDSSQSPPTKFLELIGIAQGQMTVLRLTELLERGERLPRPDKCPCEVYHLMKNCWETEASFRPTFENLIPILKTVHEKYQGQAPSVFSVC
Text: All four kinases of the JAK-family kinases were used as purified recombinant GST-fusion proteins, containing the active kinase domains. GST-JAK1(866-1154), GST-JAK3(811-1124), and GST-TYK2(888-1187) were expressed and purified by affinity chromatography at the EPK biology unit. GST-JAK2(808-1132) was purchased from Invitrogen (Carlsbad, USA, #4288).
The kinase assays were based on the Caliper mobility shift assay using the LabChip 3000 systems. This technology is similar to capillary electrophoresis and uses charge driven separation of substrate and product in a microfluidic chip.
All kinase reactions were performed in 384 well microtiter plates in a total reaction volume of 18 μl. The assay plates were prepared with 0.1 μl per well of test compound in the appropriate test concentration, as described under the section “preparation of compound dilutions”. The reactions were started by combining 9 μl of substrate mix (consisting of peptide and ATP) with 9 μl of kinase dilution. The reactions were incubated for 60 minutes at 30° C. and stopped by adding 70 μl of stop buffer (100 mM Hepes, 5% DMSO, 0.1% Coating reagent, 10 mM EDTA, 0.015% Brij 35).
Fluorescently labeled synthetic peptides were used as substrates in all reactions. […] Specific assay conditions are described in Table 1:
The terminated reactions were transferred to the Caliper LabChip 3000 reader and the turnover of each reaction was measured by determining the substrate/product ratio.
Test compounds were dissolved in DMSO (10 mM) and transferred into 1.4 mL flat bottom or V-shaped Matrix tubes carrying a unique 2D matrix chip by individual compound hubs. The numbers of these chips were distinctively linked to the individual compound identification numbers. The stock solutions were stored at −20° C. if not used immediately. For the test procedure the vials were defrosted and identified by a scanner whereby a working sheet was generated that guided the subsequent working steps.
Compound dilutions were made in 96 well plates. This format enabled the assay of maximally 40 individual test compounds at 8 concentrations (single points) including 4 reference compounds. The dilution protocol included the production of pre-dilution plates, master plates and assay plates:
Pre-dilution plates: 96 polypropylene well plates were used as pre-dilution plates. A total of 4 pre-dilution plates were prepared including 10 test compounds each on the plate positions A1-A10, one standard compound at A11 and one DMSO control at A12. All dilution steps were done on a HamiltonSTAR robot.
Master plates: 100 μL of individual compound dilutions including standard compound and controls of the 4 “pre-dilution plates” were transferred into a 384 “master plate” including the following concentrations 1′820, 564, 182, 54.6, 18.2, 5.46, 1.82 and 0.546 μM, respectively in 90% of DMSO.
Assay plates: Identical assay plates were then prepared by pipetting 100 nL each of compound dilutions of the master plates into 384-well “assay plates”. […] The preparation of the master plates were handled by the Matrix PlateMate Plus robot and replication of assay plates by the HummingBird robot.

[4] = molecular target: T3, GST-JAK2(808-1132) (Homo sapiens, UniProt O60674); assay: EPK JAK-family kinases profiling assay (Caliper mobility shift), JAK2; format: biochemical; conditions: ATP 20 μM, 1.8 nM kinase
T3 construct: GST-JAK2(808-1132); purchased Invitrogen (Carlsbad, USA) #4288
T3 sequence (O60674 808-1132): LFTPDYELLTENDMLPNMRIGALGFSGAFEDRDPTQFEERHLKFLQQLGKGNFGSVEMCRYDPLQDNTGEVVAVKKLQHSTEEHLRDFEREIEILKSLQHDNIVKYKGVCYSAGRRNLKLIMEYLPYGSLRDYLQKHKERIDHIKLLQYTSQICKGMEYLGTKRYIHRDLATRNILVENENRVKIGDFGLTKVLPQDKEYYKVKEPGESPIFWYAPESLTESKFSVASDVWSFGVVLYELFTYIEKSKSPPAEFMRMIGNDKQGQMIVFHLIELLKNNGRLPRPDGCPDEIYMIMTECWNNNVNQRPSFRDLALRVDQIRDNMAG
Summary of the method: as §1

[5] = molecular target: T4, GST-JAK3(811-1124) (Homo sapiens, UniProt P52333); assay: EPK JAK-family kinases profiling assay (Caliper mobility shift), JAK3; format: biochemical; conditions: ATP 80 μM, 6 nM kinase
T4 construct: GST-JAK3(811-1124); made in house
T4 sequence (P52333 811-1124): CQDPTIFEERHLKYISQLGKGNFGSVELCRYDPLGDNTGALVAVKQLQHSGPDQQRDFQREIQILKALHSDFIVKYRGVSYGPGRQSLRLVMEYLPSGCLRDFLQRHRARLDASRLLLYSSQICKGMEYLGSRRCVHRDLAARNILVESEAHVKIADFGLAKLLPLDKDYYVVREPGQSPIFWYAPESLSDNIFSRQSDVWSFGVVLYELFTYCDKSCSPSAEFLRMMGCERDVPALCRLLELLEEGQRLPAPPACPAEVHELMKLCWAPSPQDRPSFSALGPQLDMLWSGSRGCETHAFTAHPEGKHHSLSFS
Summary of the method: as §1

| Compound | IC50 [1] [nM] | IC50 [2] [nM] | IC50 [3] [nM] | IC50 [4] [nM] | IC50 [5] [nM] |
| --- | --- | --- | --- | --- | --- |
| Cc1cc(-c2cnc3cccc(-c4cc(F)c(CN5CCOCC5)c(F)c4)c3n2)ccc1C(=O)N1CCN(C)CC1 [Example 42, {4-[8-(3,5-Difluoro-4-morpholin-4-ylmethyl-phenyl)-quinoxalin-2-yl]-2-methyl-phenyl}-(4-methyl-piperazin-1-yl)-methanone] | 857 | 715 | 1450 | 18 | 2150 |
| Cc1cc(-c2cccc3ncc(-c4ccc(C(=O)N5CCN(C)CC5)c(C)c4)nc23)ccc1CN1CCS(=O)(=O)CC1 [Example 43, (4-{8-[4-(1,1-Dioxido-thiomorpholin-4-ylmethyl)-3-methyl-phenyl]-quinoxalin-2-yl}-2-methyl-phenyl)-(4-methyl-piperazin-1-yl)-methanone] | 1130 | 420 | 715 | 27 | 870 |
| Cc1cc(-c2cnc3cccc(-c4cc(F)c(CN5CCS(=O)(=O)CC5)c(F)c4)c3n2)ccc1C(=O)N1CCN(C)CC1 [Example 44, (4-{8-[4-(1,1-Dioxido-thiomorpholin-4-ylmethyl)-3,5-difluoro-phenyl]-quinoxalin-2-yl}-2-methyl-phenyl)-(4-methyl-piperazin-1-yl)-methanone] | 49 | 150 | 240 | 6.55 | 405 |
| Cc1cc(-c2cnc3cccc(-c4ccc(CN5CCS(=O)(=O)CC5)cc4)c3n2)ccc1C(=O)N1CCOCC1 [Example 63, (4-{8-[4-(1,1-Dioxido-thiomorpholin-4-ylmethyl)-phenyl]-quinoxalin-2-yl}-2-methyl-phenyl)-morpholin-4-yl-methanone] | 986 | 370 | 1450 | 77.5 | 4300 |
| Cc1cc(-c2cnc3cccc(-c4ccc(CN5CCS(=O)(=O)CC5)c(C)c4)c3n2)ccc1CN1CCOCC1 [Example 70, 8-[4-(1,1-Dioxido-thiomorpholin-4-ylmethyl)-3-methyl-phenyl]-2-(3-methyl-4-morpholin-4-ylmethyl-phenyl)-quinoxaline] | 564 | 360 | 1350 | 30.5 | 1750 |
| Cc1cc(-c2cnc3cccc(-c4cc(F)c(CN5CCOCC5)c(F)c4)c3n2)ccc1C(=O)N1CCC(N(C)C)CC1 [Example 101, {4-[8-(3,5-Difluoro-4-morpholin-4-ylmethyl-phenyl)-quinoxalin-2-yl]-2-methyl-phenyl}-(4-dimethylamino-piperidin-1-yl)-methanone] | – | 575 | 1450 | 14 | 1020 |
| Fc1cc(-c2cccc3ncc(-c4cnn(C5CNC5)c4)nc23)cc(F)c1CN1CCOCC1 [Example 116, 2-(1-Azetidin-3-yl-1H-pyrazol-4-yl)-8-(3,5-difluoro-4-morpholin-4-ylmethyl-phenyl)-quinoxaline] | – | 243 | 437 | 8 | 2900 |
| COCCOC(=O)N1CCC(n2cc(-c3cnc4cccc(-c5cc(F)c(CN6CCOCC6)c(F)c5)c4n3)cn2)CC1 [Example 122, 4-{4-[8-(3,5-Difluoro-4-morpholin-4-ylmethyl-phenyl)-quinoxalin-2-yl]-pyrazol-1-yl}-piperidine-1-carboxylic acid 2-methoxy-ethyl ester] | – | 475 | 540 | 9.35 | 3250 |

The next compounds have a lower IC50 [2] than those just listed; values first:

| IC50 [1] [nM] | IC50 [2] [nM] | IC50 [3] [nM] | IC50 [4] [nM] | IC50 [5] [nM] | Compound |
| --- | --- | --- | --- | --- | --- |
| 338 | 27 | 88 | 4.1 | 490 | COc1cc(-c2cnc3cccc(-c4ccc(CC(=O)N5CCOCC5)cc4)c3n2)ccc1OCCN1CCOCC1 [Example 34, 2-(4-{3-[3-Methoxy-4-(2-morpholin-4-yl-ethoxy)-phenyl]-quinoxalin-5-yl}-phenyl)-1-morpholin-4-yl-ethanone] |
| 1720 | 94 | 520 | 11.9 | 1860 | COc1cc(-c2cnc3cccc(-c4ccc(C(=O)N5CCOCC5)c(F)c4)c3n2)ccc1OCCN1CCOCC1 [Example 35, (2-Fluoro-4-{3-[3-methoxy-4-(2-morpholin-4-yl-ethoxy)-phenyl]-quinoxalin-5-yl}-phenyl)-morpholin-4-yl-methanone] |
| 1650 | 38 | 1600 | 7.05 | > 10000 | COCCOc1ccc(-c2cnc3cccc(-c4cc(F)c(CN5CCOCC5)c(F)c4)c3n2)cc1OC [Example 50, 8-(3,5-Difluoro-4-morpholin-4-ylmethyl-phenyl)-2-[3-methoxy-4-(2-methoxy-ethoxy)-phenyl]-quinoxaline] |
| 2040 | 120 | > 10000 | 31.5 | > 10000 | COCCOc1ccc(-c2cnc3cccc(-c4ccc(CN5CCOCC5)c(F)c4)c3n2)cc1OC [Example 51, 8-(3-Fluoro-4-morpholin-4-ylmethyl-phenyl)-2-[3-methoxy-4-(2-methoxy-ethoxy)-phenyl]-quinoxaline] |
| 2950 | 97.5 | 985 | 32 | 1100 | COCCOc1ccc(-c2cnc3cccc(-c4ccc(CN5CCS(=O)(=O)CC5)c(C)c4)c3n2)cc1OC [Example 52, 8-[4-(1,1-Dioxido-thiomorpholin-4-ylmethyl)-3-methyl-phenyl]-2-[3-methoxy-4-(2-methoxy-ethoxy)-phenyl]-quinoxaline] |
| 150 | 12 | 93.5 | < 3 | 215 | COCCOc1ccc(-c2cnc3cccc(-c4cc(F)c(CN5CCS(=O)(=O)CC5)c(F)c4)c3n2)cc1OC [Example 53, 8-[4-(1,1-Dioxido-thiomorpholin-4-ylmethyl)-3,5-difluoro-phenyl]-2-[3-methoxy-4-(2-methoxy-ethoxy)-phenyl]-quinoxaline] |
| 46.5 | 68 | 165 | 4.95 | 290 | Cc1cc(-c2cnc3cccc(-c4cc(F)c(CN5CCS(=O)(=O)CC5)c(F)c4)c3n2)ccc1C(=O)N1CCOCC1 [Example 64, (4-{8-[4-(1,1-Dioxido-thiomorpholin-4-ylmethyl)-3,5-difluoro-phenyl]-quinoxalin-2-yl}-2-methyl-phenyl)-morpholin-4-yl-methanone] |
| 296 | 21 | 140 | 4 | – | CN1CCN(c2cccc(-c3cnc4cccc(-c5cc(F)c(CN6CCS(=O)(=O)CC6)c(F)c5)c4n3)c2)CC1 [Example 170, 8-[4-(1,1-Dioxido-thiomorpholin-4-ylmethyl)-3,5-difluoro-phenyl]-2-[3-(4-methyl-piperazin-1-yl)-phenyl]-quinoxaline] |
